# Measurements: US9096853B2, “Modified siRNA molecules incorporating 5-fluoro-2′-deoxyuridine residues to enhance cytotoxicity” (U.S. Department of Veterans Affairs, priority 2012, dated 2015)
# Strand notation (5' to 3'): a small letter for the sugar, then the base; units joined by * are phosphorothioate-linked, units joined directly phosphodiester-linked; [ ] holds rarer units or linkages, { } end groups; capitals alone tell only the bases. [5FU] = 5-fluoro-2'-deoxyuridine (FdU); d = 2'-deoxy (DNA); r = 2'-OH (RNA)
# Columns and labels:
# [1] = tested on: thymidylate synthase (TS) protein; experiment: Immunoblot analysis of TS protein (free and ITC-bound), Odyssey quantitation; type: cell-based, human; conditions: RKO cells, ssiRNA 1 nM, 48 hr; for Free TS (%) / ITC-Bound TS (%): normalized to free TS protein in mock-transfected cells (LF2000) set to 100%, mean ± S.D., 6 experiments
# Protocol: FIGS. 1A-B illustrate the effect of FdU incorporation in ssiRNA on TS protein expression. RKO cells were transfected with TS6 ssiRNAs (1 nM) containing various 3′-overhangs. After 6 hr, the medium was replaced. After an additional 48 hr, cells were harvested and processed for immunoblot and qPCR analysis as described in the Materials and Methods section. (A) Representative blot from 4 experiments. (B) All qPCR values represent the mean±S.D. from at least 3 separate experiments performed in triplicate. The normalized amount of TS mRNA from mock-transfected cells (LF2000) was set to 1.0 and all other values compared against that value. ITC, inhibitory ternary complex;
# Cells were plated at a density of 1.5×10^5 cells/well. On the following day, ssiRNAs were complexed with Lipofectamine 2000 (LF2000, Invitrogen) in serum-free RPMI-1640 medium and added to the plated cells. After 48 hr, cells were rinsed with PBS and scraped in cell lysis buffer (10 mM Tris pH7.4, 150 mM NaCl, 1 mM EDTA, 1% IGEPAL, 0.5% sodium deoxycholate, and 0.1% SDS) containing freshly added Protease Inhibitor Cocktail (Sigma; St. Louis, Mo.), 1 mM phenylmethylsulfonyl fluoride, and phosphatase inhibitors (Sigma). Lysates were sonicated and then centrifuged at 14,000 rpm for 30 min at 4° C. to remove debris. Cell lysates were stored at −80° C. for future use. For mRNA analysis, total RNA was extracted using Trizol (Invitrogen) and stored at −80° C. for future use.
# Protein concentrations of cell lysates were determined using the DC Protein Assay (Bio-Rad; Hercules, Calif.). Equal amounts of protein (30 μg) from each cell lysate were resolved on SDS-PAGE using the method of Laemmli (Reference 19) and transferred onto 0.45 μm nitrocellulose membranes (Bio-Rad). Membranes were blocked and incubated overnight with primary antibodies at 4° C. The following antibodies were used in the experiments: anti-TS (Clone 4H4B1; Invitrogen), anti-TS (#5449; Cell Signaling; San Francisco, Calif.), anti-p21 Waf1/Cip1 (#2947; Cell Signaling), anti-p53 (#sc-126; Santa Cruz Biotechnology; Santa Cruz, Calif.), anti-PARP (#9542; Cell Signaling), anti-Fas (#4233; Cell Signaling), anti-phospho-histone H2A.X (Ser139) (#2577; Cell Signaling), anti-histone H2A.X (#7631; Cell Signaling), anti-phospho-ATM (pS1981; EPITOMICS Inc.; Burlingame, Calif.), anti-ATM (#A1106; Sigma), and anti-α-tubulin (EMD Biosciences; San Diego, Calif.). After multiple TBST washes (1×TBS, 0.1% Tween-20), membranes were incubated with corresponding horseradish peroxidase-conjugated secondary antibodies (Bio-Rad) for 1 hr at room temperature. Proteins were detected by the enhanced chemiluminescence method (SuperSignal West Pico substrate; Pierce; Rockford, Ill.). Quantitation of signal intensities was performed by densitometry on a Xerox scanner using NIH IMAGEJ software.
# Immunoblots were prepared as described above. After incubation with anti-TS polyclonal antibody, membranes were blocked with the Odyssey blocking buffer and incubated with IRDye 800CW goat anti-rabbit antibody (LI-COR Biosciences; Lincoln, Nebr., USA) according to the manufacturer instructions. The fluorescent signal was detected and quantified using the Odyssey infrared imaging system (LI-COR).
# [2] = tested on: human colon cancer RKO cell line; experiment: Cell proliferation assay (WST-1) in RKO cells; type: cell-based; conditions: for IC50: 6 hr exposure then 96 hr growth, mean ± S.D., at least 3 experiments; for effect on cell proliferation / cytotoxicity (in words): WST-1
# Protocol: RKO cells were plated in 96-well plates at a density of 800 cells/well. On the following day, cells were incubated with ssiRNA/LF2000 complexes for 6 hr, after which time, the growth medium was replaced, and cells were grown for an additional 96 hr. Similarly, RKO cells were treated with FdU (#F0503, Sigma) for 6 hr followed by medium replacement and then allowed to grow for an additional 96 hr. Cell proliferation/viability was quantified by the WST-1 assay (Roche; Indianapolis, Ind.).
# [3] = tested on: human colon cancer RKO cell line; experiment: Clonogenic assay in RKO cells; type: cell-based; conditions: for IC50: 6 hr exposure, colonies counted after 8 days, mean ± S.D., at least 3 experiments
# Protocol: RKO cells were plated in 6-well plates at a density of 600 cells/well. On the following day, cells were transfected with ssiRNA/LF2000 complexes for 6 hr after which time, the growth medium was replaced. Similarly, FdU was added to wells for 6 hr followed by medium replacement. After 8 days, cell colonies were fixed with Trypan blue solution (75% methanol/25% acetic acid/0.25% trypan blue), washed, and air-dried before counting colonies >50 cells.
# [4] = tested on: TS6 siRNA target sequence (TS mRNA nt 1058-1077) targeted by the antisense strand; experiment: Luciferase assay, vector with TS6 target site for the antisense strand; type: cell-based, human; conditions: RKO cells, ssiRNA 0.1 nM, 24 hr
# Protocol: (§1) FIG. 3 illustrates the effect of 3′-end modification on ssiRNA strand selection. RKO cells were transfected with luciferase vectors (including the TS6 target site for either the antisense (open bars) or sense strand (hatched bars)) in combination with ssiRNAs containing different 3′-end overhangs. After 24 hr, cells were harvested and luciferase activity was determined as described in the Materials and Methods section. Firefly/renilla luciferase activity from vector-alone transfection was normalized to 100%. All values represent the mean±S.D. from at least 4 separate experiments performed in duplicate;
# (§2) FIGS. 4A-C illustrate the effect of 3′-end dU incorporation on ssiRNA strand selection. RKO cells were transfected with various TS6 ssiRNAs (1 nM) for 6 hr. After an additional 48 hr, cells were harvested for immunoblot (A) and qPCR (B) analysis. (C) Luciferase vectors (containing the siRNA target site for either the sense or antisense strand) were transfected into RKO cells in combination with different ssiRNAs. After 24 hr, cells were harvested and luciferase activity was determined as described in the Materials and Methods section. Luciferase activity from vector-alone transfection was normalized to 100%. All values represent the mean±S.D. from at least 4 separate experiments performed in duplicate;
# (§3) A DNA oligonucleotide corresponding to the TS6 siRNA target sequence (TS mRNA nt 1058-1077: 5′-[…]-3′- SEQ ID NO: 23) was annealed to its complimentary antisense sequence and ligated into the pGL3-Promoter plasmid (Promega; Madison, WI) at restriction sites Hind III and Nco I. The luciferase mRNA expressed from this plasmid was targeted by the antisense strand of TS6 siRNA. A second plasmid was constructed with the TS mRNA sequence inserted in the opposite orientation so that it could be targeted by the sense or passenger strand of TS6 siRNA. […] After 24 hr, cells were washed with PBS, lysed in 1×PLG buffer, and firefly and renilla luciferase levels were determined by the Dual-Luciferase™ Reporter Assay system (Promega). […]
# [5] = tested on: TS mRNA sequence in opposite orientation targeted by the sense (passenger) strand; experiment: Luciferase assay, vector with TS6 target site for the sense strand; type: cell-based, human; conditions: RKO cells, ssiRNA 0.1 nM, 24 hr
# Protocol: as §1, §2, §3
# [6] = tested on: thymidylate synthase (TS) protein; experiment: Immunoblot analysis of TS protein (free and ITC-bound), Odyssey quantitation; type: cell-based, human; conditions: RKO cells, 5 nM for 6 hr
compound,measurement,setting,value
"TS6-3xF-dU/dA: ssiRNA with FdU replacing U at positions 10, 16 and 18 in the antisense strand; SEQ ID NO: 15 and 16 (chain 1 GGAUAUUGUCAGUCUUUAGGUUUUU; chain 2 CCUAAAGACUGACAAUAUCCAAAAA; FdU at antisense positions 10, 16, 18, chemistry not fully specified)",Free TS (%),[1],73.6 ± 14.7%
same,ITC-Bound TS (%),[1],26.2 ± 10.7%
"TS6-2xF-dU/dA: ssiRNA with FdU on positions 16 and 18 of the antisense strand; SEQ ID NO: 17 and 18 (chain 1 GGAUAUUGUCAGUCUUUAGGUUUUU; chain 2 CCUAAAGACUGACAAUAUCCAAAAA; chain 1: sugars from the 5' end r20 d5, backbone not given here; chain 2: sugars from the 5' end rrrrrrrrrrrrrrrdrdrrddddd, [5FU] at 16, 18, backbone not given here)",Free TS (%),[1],54.1 ± 14.1%
same,ITC-Bound TS (%),[1],15.4 ± 9.5%
"O=c1[nH]c(=O)n([C@H]2C[C@H](O)[C@@H](CO)O2)cc1F [FdU (TS inhibitor), 5-fluoro-2′-deoxyuridine]",IC50,[2]; Homo sapiens,6.93 ± 2.08 nM
same,IC50,[3]; Homo sapiens,7.42 ± 1.33 nM
"TS6-dA/FdU: TS-targeted ssiRNA with FdU modification of the 3′-end of antisense strand; SEQ ID NO: 11 and 12 (chain 1 GGAUAUUGUCAGUCUUUAGGAAAAA; chain 2 CCUAAAGACUGACAAUAUCCUUUUU; chain 1: sugars from the 5' end r20 d5, backbone not given here; chain 2: sugars from the 5' end r20 d5, [5FU] at 21, 22, 23, 24, 25, backbone not given here)",IC50,[2],1.27 ± 0.32 nM
same,effect on cell proliferation / cytotoxicity (in words),[2],significantly less effective
same,effect on clonogenic growth (in words),[3],significantly less effective
same,IC50,[3],0.4 ± 0.2 nM
same,effect on TS protein expression (in words),[1],reduced the ability
same,Free TS (%),[1],48.0 ± 18.6%
same,ITC-Bound TS (%),[1],30.6 ± 15.6%
same,less targeting by the antisense strand,[4],2 fold
same,"sense strand targeting, luciferase (in words)",[5],enhanced
"TS6-UU: standard TS6 siRNA with two uridine overhangs, TS-targeted; SEQ ID NO: 1 (sense) and 2 (antisense) (sense GGAUAUUGUCAGUCUUUAGGUU; antisense CCUAAAGACUGACAAUAUCCUU; RNA, backbone not given here)","antisense strand targeting, luciferase (in words)",[4],suppressed
same,"sense strand targeting, luciferase (in words)",[5],suppressed
"Mis-dU/dA: unmodified mismatched control ssiRNA; SEQ ID NO: 19 and 20 (chain 1 GGAUACUGCCAAUCUCUAGGUUUUU; chain 2 CCUAGAGAUUGGCAGUAUCCAAAAA; chain 1: sugars from the 5' end r20 d5, backbone and T or U not given here; chain 2: sugars from the 5' end r20 d5, backbone not given here) [reference compound]",effect on cell proliferation / cytotoxicity (in words),[2],no effect
same,effect on clonogenic growth (in words),[3],no effect
same,Free TS (%),[1],90.1 ± 14.0%
"TS6-FdU/FdU: TS-targeted ssiRNA, both 3′-ends modified with FdU; SEQ ID NO: 13 and 14 (chain 1 rGrGrArUrArUrUrGrUrCrArGrUrCrUrUrUrArGrGd[5FU]d[5FU]d[5FU]d[5FU]d[5FU]; chain 2 rCrCrUrArArArGrArCrUrGrArCrArArUrArUrCrCd[5FU]d[5FU]d[5FU]d[5FU]d[5FU])",IC50,[2],0.77 ± 0.12 nM
same,IC50,[3],0.43 ± 0.16 nM
same,"reduced efficacy as compared to TS6-FdU/dA, clonogenic assay",[3]; p=0.01,2 fold
"O=c1[nH]cc(F)c(=O)[nH]1 [5-FU, 5-fluorouracil, reference compound]",formation of the ITC after incubation with 5-FU,[6],did not result in formation of the ITC
"TS6-1xF-dU/dA: ssiRNA with a single FdU residue at the 4th position in the sense strand; SEQ ID NO: 5 and 6 (chain 1 GGAUAUUGUCAGUCUUUAGGUUUUU; chain 2 CCUAAAGACUGACAAUAUCCAAAAA; FdU at position 4 of sense strand, chemistry not fully specified)","enhancement of IC50 versus TS6-dU/dA, cell growth (WST-1) assay",[2],~30 fold
same,IC50,[2],2.85 ± 0.83 nM
same,"fold lower IC50 (greater potency) versus TS6-dU/dA, clonogenic assay",[3],5 fold
same,IC50,[3],0.34 ± 0.08 nM
same,effect on TS protein expression (in words),[1],significantly inhibited
same,Free TS (%),[1],27.3 ± 8.3%
same,ITC-Bound TS (%),[1],4.4 ± 2.6%
